# From BindingDB's records for doi:10.1021/jm0606185 (Uppsala University, 2006)
# Molecular target: Type-2 angiotensin II receptor (Sus scrofa)
# Experiment: Displacement of [125I]Ang2 from AT2 receptor in pig uterus membrane
row,Ki [nM],SMILES
1,4,CCCCN(C)C(=O)NS(=O)(=O)c1sc(CC(C)C)cc1-c1ccc(Cn2ccnc2)cc1 [N-(N-butyl-methylaminocarbonyl)-3-(4-imidazol-1-ylmethylphenyl)-5-isobutylthiophene-2-sulfonamide]
2,31,COCCOC(=O)NS(=O)(=O)c1sc(CC(C)C)cc1-c1ccc(Cn2ccnc2)cc1 [N-(methyloxy-ethyloxycarbonyl)-3-(4-imidazol-1-ylmethylphenyl)-5-iso-butylthiophene-2-sulfonamide]
3,5,CCCCOC(=O)NS(=O)(=O)c1ccc(CCCC)cc1-c1ccc(Cn2ccnc2)cc1 [N-butyloxycarbonyl-2-(4-imidazol-1-ylmethylphenyl)-4-butylbenzenesulfonamide]
4,15,CCCCOC(=O)NS(=O)(=O)c1ccc(OC(C)C)cc1-c1ccc(Cn2ccnc2)cc1 [N-butyloxycarbonyl-2-(4-imidazol-1-ylmethylphenyl)-4-iso-propoxybenzenesulfonamide]
5,5,CCCCOC(=O)NS(=O)(=O)c1sc(CCCC)cc1-c1ccc(Cn2ccnc2)cc1 [N-butyloxycarbonyl-3-(4-imidazol-1-ylmethylphenyl)-5-butylthiophene-2-sulfonamide]
6,79,CCCCS(=O)(=O)NC(=O)c1sc(CC(C)C)cc1-c1ccc(Cn2ccnc2)cc1 [N-butylsulfonyl-3-(4-imidazol-1-ylmethylphenyl)-5-iso-butylthiophene-2-carboxamide]
7,76,CCCCS(=O)(=O)NS(=O)(=O)c1sc(CC(C)C)cc1-c1ccc(Cn2ccnc2)cc1 [N-butylsulfonyl-3-(4-imidazol-1-ylmethylphenyl)-5-iso-butylthiophene-2-sulfonamide]
8,2,CCCCc1ccc(S(=O)(=O)NC(=O)OCC)c(-c2ccc(Cn3ccnc3)cc2)c1 [N-ethyloxycarbonyl-2-(4-imidazol-1-ylmethylphenyl)-4-butylbenzenesulfonamide]
9,75,CC(C)Cc1cc(-c2ccc(Cn3ccnc3)cc2)c(S(=O)(=O)NC(=O)OC(C)C)s1 [N-iso-propyloxycarbonyl-3-(4-imidazol-1-ylmethylphenyl)-5-iso-butylthiophene-2-sulfonamide]
10,63,CC(C)Cc1cc(-c2ccc(Cn3ccnc3)cc2)c(S(=O)(=O)NC(=O)OC(C)(C)C)s1 [N-tert-butyloxycarbonyl-3-(4-imidazol-1-ylmethylphenyl)-5-iso-butylthiophene-2-sulfonamide]
